Data taken from article PMC9694544, “Conteltinib (CT-707) in patients with advanced ALK-positive non-small cell lung cancer: a multicenter, open-label, first-in-human phase 1 study” (BMC Medicine, 2022).
Like-named read-outs stand apart in the source and are kept apart here.

Assay: clinical
Details: human, in vivo; for half-life: read-out: T1/2 (converted); for Tmax: read-out: Tmax
Protocol: For single-dose PK parameters, plasma samples were taken at pre-dose and 0.5 h, 1 h, 2 h, 3 h, 4 h, 6 h, 8 h, 12 h, 24 h, 48 h, 72 h, 96 h, 120 h, 144 h, and 168 h post-dose in PK lead-in phase of dose-escalation phase, and plasma samples were also taken at pre-dose and 0.5 h, 1 h, 2 h, 3 h, 4 h, 6 h, 8 h, 12 h, and 24 h post-dose in cycle 1 day 1 of dose-expansion phase. During continuous dosing, serial plasma samples were collected at pre-dose in cycle 1 day 15, pre-dose in cycle 1 day 22, pre-dose and 0.5 h, 1 h, 2 h, 3 h, 4 h, 6 h, 8 h, 12 h, and 24 h post-dose in cycle 1 day 28 for all dose cohorts. The following PK parameters were assessed: area under the concentration-time curve from the time of dosing extrapolated to infinity, based on the last observed concentration (AUCINF_obs); area under the concentration-time curve from the time of dosing to the time of last observation (AUClast); maximum concentration (Cmax); time to maximum concentration (Tmax); elimination half-life (T1/2); and mean residence time from the time of dosing to the time of the last measurable concentration (MRTlast).

[1] = 100 mg, cycle 1 day 28 of dose-expansion phase, 100 mg (n=5), mean
[2] = 100 mg, single dose, cycle 1 day 1 of dose-expansion phase, 100 mg (n=5), mean
[3] = 450 mg, cycle 1 day 28 of dose-expansion phase, 450 mg (n=10), mean
[4] = 450 mg, single dose, cycle 1 day 1 of dose-expansion phase, 450 mg (n=10), mean
[5] = 600 mg, cycle 1 day 28 of dose-expansion phase, 600 mg (n=10), mean
[6] = 600 mg, single dose, cycle 1 day 1 of dose-expansion phase, 600 mg (n=10), mean
[7] = cycle 1 day 28 of dose-escalation phase, 50 mg (n=2), mean
[8] = cycle 1 day 28 of dose-escalation phase, 100 mg (n=3), mean
[9] = cycle 1 day 28 of dose-escalation phase, 200 mg (n=3), mean
[10] = cycle 1 day 28 of dose-escalation phase, 300 mg (n=3), mean
[11] = cycle 1 day 28 of dose-escalation phase, 450 mg (n=3), mean

In the case of COc1cc(N2CCC(N3CCN(C)CC3)CC2)ccc1Nc1nc2c(c(Nc3ccccc3S(=O)(=O)NC(C)C)n1)CCN2 [Conteltinib], the Cmax (100 mg, Cmax) was 123 ng/mL, the AUC(0-t) [1] was 1710 ng·h/mL and the MRT last [1] was 10.7 h. It also gave an AUC(0-inf) (100 mg, cycle 1 day 28 of dose-expansion phase, 100 mg (n=5), mean, read-out: AUCINF_obs) of 6460 ng·h/mL, a half-life [1] of 53.2 h and a Tmax [1] of 2 h. The AUC(0-t) [2] was 737 ng·h/mL, the MRT last [2] was 8.9 h and the AUC(0-inf) (100 mg, single dose, cycle 1 day 1 of dose-expansion phase, 100 mg (n=5), mean, read-out: AUCINF_obs) was 1310 ng·h/mL. The Cmax (100 mg, single dose, cycle 1 day 1 of dose-expansion phase, 100 mg (n=5), mean, read-out: Cmax) was 85.5 ng/mL, the half-life [2] was 26.7 h and the Tmax [2] was 2.7 h. The AUC(0-t) [3] was 7040 ng·h/mL, the MRT last [3] was 10.5 h and the AUC(0-inf) (450 mg, cycle 1 day 28 of dose-expansion phase, 450 mg (n=10), mean, read-out: AUCINF_obs) was 15700 ng·h/mL. The Cmax (450 mg, cycle 1 day 28 of dose-expansion phase, 450 mg (n=10), mean, read-out: Cmax) was 491 ng/mL, the half-life [3] was 26.3 h and the Tmax [3] was 3 h. The AUC(0-t) [4] was 3060 ng·h/mL, the MRT last [4] was 9.3 h and the AUC(0-inf) (450 mg, single dose, cycle 1 day 1 of dose-expansion phase, 450 mg (n=10), mean, read-out: AUCINF_obs) was 6340 ng·h/mL. The Cmax (450 mg, single dose, cycle 1 day 1 of dose-expansion phase, 450 mg (n=10), mean, read-out: Cmax) was 328 ng/mL, the Tmax [4] was 2.3 h and the AUC(0-inf) (600 mg, AUCINF_obs) was 7150 ng·h/mL. The AUC(0-t) [5] was 11900 ng·h/mL, the AUC(0-inf) (600 mg, cycle 1 day 28 of dose-expansion phase, 600 mg (n=10), mean, read-out: AUCINF_obs) was 32500 ng·h/mL and the Cmax (600 mg, cycle 1 day 28 of dose-expansion phase, 600 mg (n=10), mean, read-out: Cmax) was 772 ng/mL. For the same compound, the half-life [5] was 37.1 h, the Tmax [5] was 3.3 h and the AUC(0-t) [6] was 4610 ng·h/mL. The MRT last [6] was 9.8 h, the Cmax (600 mg, single dose, cycle 1 day 1 of dose-expansion phase, 600 mg (n=10), mean, read-out: Cmax) was 472 ng/mL and the half-life [6] was 16.7 h. The Tmax [6] was 4.6 h, the AUC(0-t) [7] was 683 ng·h/mL and the AUC(0-inf) (cycle 1 day 28 of dose-escalation phase, 50 mg (n=2), mean, read-out: AUCINF_obs) was 16700 ng·h/mL. It also gave a Cmax (cycle 1 day 28 of dose-escalation phase, 50 mg (n=2), mean, read-out: Cmax) of 42.7 ng/mL, a half-life [7] of 352 h and a Tmax [7] of 1.5 h. It also gave an AUC(0-t) [8] of 1480 ng·h/mL, an AUC(0-inf) (cycle 1 day 28 of dose-escalation phase, 100 mg (n=3), mean, read-out: AUCINF_obs) of 6110 ng·h/mL and a Cmax (cycle 1 day 28 of dose-escalation phase, 100 mg (n=3), mean, read-out: Cmax) of 106 ng/mL. The half-life [8] was 61.1 h, the Tmax [8] was 2.7 h and the AUC(0-t) [9] was 3570 ng·h/mL. It also gave an MRT last [9] of 11.2 h, an AUC(0-inf) (cycle 1 day 28 of dose-escalation phase, 200 mg (n=3), mean, read-out: AUCINF_obs) of 12400 ng·h/mL and a Cmax (cycle 1 day 28 of dose-escalation phase, 200 mg (n=3), mean, read-out: Cmax) of 259 ng/mL. The half-life [9] was 42.2 h, the Tmax [9] was 3 h and the AUC(0-t) [10] was 4860 ng·h/mL. It also gave an AUC(0-inf) (cycle 1 day 28 of dose-escalation phase, 300 mg (n=3), mean, read-out: AUCINF_obs) of 19000 ng·h/mL, a Cmax (cycle 1 day 28 of dose-escalation phase, 300 mg (n=3), mean, read-out: Cmax) of 282 ng/mL and a half-life [10] of 50.9 h. The Tmax [10] was 3 h, the AUC(0-t) [11] was 8050 ng·h/mL and the MRT last [11] was 11.6 h. It also gave an AUC(0-inf) (cycle 1 day 28 of dose-escalation phase, 450 mg (n=3), mean, read-out: AUCINF_obs) of 34400 ng·h/mL, a Cmax (cycle 1 day 28 of dose-escalation phase, 450 mg (n=3), mean, read-out: Cmax) of 474 ng/mL and a half-life [11] of 48.6 h.
